Data on one substance can be found in patent US10792301B2, “Therapeutic polysaccharide midi-GAGR and related materials and methods” (priority 2015, dated 2020).

Experiment [1] concerns Differentiated dopaminergic PC12 cells. The experiment is described as follows: LIVE/DEAD viability of differentiated PC12 cells exposed to 6-OHDA. The format is cell-based. As to conditions: 1 μM for 6 h, then 30 μM 6-OHDA for 24 h. The method, then:
Differentiated dopaminergic PC12 cells and primary mouse embryonic cortical neurons (E17, DIV14) were treated with mock (H2O) or 1 μM of dextran, alginate, HA-GAGR or midi-GAGR for 6 h and insulated by oxidative stressors (30 μM 6-OHDA [PC12] and 10 μM amyloid β peptide [cortical neurons]) for 24 h.

For experiment [2], the system named is Rat embryonic cortical neurons. The experiment is described as follows: Neuritic atrophy caused by 4-HNE, Scholl ring analysis. As to conditions: pre-treatment 2 days (1 μM; ascorbate 100 μM), then 25 μM 4-HNE 1 day. The format is cell-based. The method, then: Rat embryonic cortical neurons were treated with mock (FIG. 11C), 1 μM HA-GAGR (high acyl gellan gum), 1 μM dextran, 100 μM ascorbate or 1 μM midi-GAGR (FIG. 13A) for 2 days and then with 25 μM 4-hydroxynonenal (4-HNE), a lipid peroxide, for 1 day. After fixation, neurons were immunostained with anti-synaptophysin antibody (green) and rhodamine-phalloidin (actin: red). Scholl ring analysis was performed.

In experiment [3] the test system is phosphorylated CREB in mouse embryonic cortical neurons. The experiment is described as follows: Nuclear p-CREB immunostaining in cortical neurons (Example 2). The format is cell-based. As to conditions: 1 μM, 24 h. The method, then:
Differentiated PC12 cells and mouse embryonic cortical neurons (E17, DIV14) were treated with mock, dextran, alginate, HA-GAGR or midi-GAGR (1 μM) for 24 h and fixed in 3.7% paraformaldehyde. The fixed cells and neurons were immunostained with antibodies against α-tubulin and phosopho-CREB (p-CREB) along with DAPI (nucleus).

Another experiment addresses T1, FGFR1 (Mus musculus, UniProt P16092).
T1 construct: Whole mouse brains were homogenized for cytosol extraction in PMEE buffer containing 1% Igepal CA-630; from tissue; host or cells: mouse cerebral cortex / whole brain detergent extract
The experiment is described as follows: Affinity chromatography with midi-GAGR- or dextran-conjugated sepharose beads, FGFR1 immunoblot. Type of experiment: binding. As to conditions: brain extract in 0.5% Igepal PMEE buffer. How it is done: To examine whether midi-GAGR interacts with synaptosomal FGFR1 or not, an affinity chromatography using midi-GAGR-conjugated sepharose beads was performed. Either midi-GAGR or dextran were conjugated to epoxy-activated sepharose 6B that is a pre-activated medium that can be conjugated to the hydroxyl groups of carbohydrates. Briefly, 200 μL of 7.4 mM midi-GAGR or 5 kD dextran in H2O was mixed with 200 μL of epoxy-activated sepharose beads in a microtube and incubated on a rotator (16 h, 37° C.). The mixture was spun down at 1,000×g (10 min) to separate bead-bound polysaccharides from unbound. Unoccupied active sites on beads were blocked by incubation (4 h, 45° C.) in 1 M ethanolamine (pH 8). Then, beads were washed with three cycles of alternating pH solutions—0.1 M acetate buffer (pH 4) and 0.1 M Tris-HCl buffer (pH 8), both containing 0.5 M NaCl. The conjugation of polysaccharides to beads was confirmed by phenol-sulfuric acid colorimetry. Cerebral cortices were dissected from four female mice (BALB/C, 8 wks old) and homogenized with a hand grinder in 1 mL of PMEE homogenization buffer plus 1% Igepal CA-630 and protease inhibitors (PIs). The homogenate was centrifuged at 1,000×g (10 min) to remove nuclei and undisrupted cells. The supernatant was subjected to 5-6 strokes through 27 G needle. Post-nuclear supernatant was centrifuged at 1,000×g (15 min). […]
On the technique in general: A western blot detects proteins with antibodies after separation by electrophoresis.

T1 sequence (P16092 22-822): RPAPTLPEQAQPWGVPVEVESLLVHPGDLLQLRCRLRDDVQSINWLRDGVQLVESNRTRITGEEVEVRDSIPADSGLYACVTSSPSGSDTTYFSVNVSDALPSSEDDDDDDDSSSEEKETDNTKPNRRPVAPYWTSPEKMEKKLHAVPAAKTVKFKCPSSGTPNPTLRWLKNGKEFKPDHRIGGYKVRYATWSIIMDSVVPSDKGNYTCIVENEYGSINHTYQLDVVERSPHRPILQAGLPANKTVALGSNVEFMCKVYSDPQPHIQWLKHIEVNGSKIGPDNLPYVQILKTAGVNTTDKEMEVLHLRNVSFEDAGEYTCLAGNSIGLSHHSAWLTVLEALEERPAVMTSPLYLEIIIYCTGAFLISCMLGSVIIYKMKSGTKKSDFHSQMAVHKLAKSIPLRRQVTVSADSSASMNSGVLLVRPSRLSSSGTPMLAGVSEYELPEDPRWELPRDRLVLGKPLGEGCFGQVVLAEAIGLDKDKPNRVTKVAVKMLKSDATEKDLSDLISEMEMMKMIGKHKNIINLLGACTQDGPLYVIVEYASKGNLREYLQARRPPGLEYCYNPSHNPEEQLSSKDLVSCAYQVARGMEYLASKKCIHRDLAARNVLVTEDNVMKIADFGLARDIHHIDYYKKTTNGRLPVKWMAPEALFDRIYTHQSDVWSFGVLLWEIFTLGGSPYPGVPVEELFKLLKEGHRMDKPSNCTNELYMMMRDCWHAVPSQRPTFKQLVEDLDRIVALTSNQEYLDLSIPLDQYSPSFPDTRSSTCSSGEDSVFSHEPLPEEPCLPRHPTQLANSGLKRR

As to dextran, the 6-OHDA-induced cell death entry in experiment [1] was “did not”. Further, the “neurites in the presence of 4-HNE (neuritic atrophy)” value in experiment [2] is on record as “lost neuritis”. The “increase of the levels of nuclear p-CREB” value in experiment [3] is given as “not significantly increased”. Also, the “FGFR1 eluted from polysaccharide-conjugated beads” value on FGFR1 is reported as “not from dextran beads”.
